Publication PMC12040169 (PLOS Biology, 2025)

assay: in vitro; conditions: human, hela cells, % viability

SMILES | viability at 28.5 h, 10 µM
CC1CCCCN1C(=O)Cn1ncn2c(cc3ccsc32)c1=O (centres unmarked) [CBK284201] | 92.1%
O=c1ccc(-c2ccccc2)nn1CC1CCNCC1 [CBK284203] | 98.6%
COC(=O)CN1N=C(C(C)(C)C)Cn2c(cc3ccccc32)C1=O [CBK284204] | 95.5%
O=C(c1nccs1)C1CCN(C(=O)CC2CCCC2)CC1 [CBK284207] | 107%
C#CCN1N=C(c2ccc(OC)cc2)Cn2c(cc3sccc32)C1=O [CBK284209] | 91.2%
CC(C)(C)C(=O)N1CCC(c2[nH]ncc2-c2ccncc2)CC1 [CBK284211] | 88.2%
O=C(C1CC=CCC1)N1CCC(c2[nH]ncc2-c2ccncc2)CC1 (centres unmarked) [CBK284212] | 84%
CCn1c2cc(C)oc2c2cnn(CC(=O)N3CCCCC3)c(=O)c21 [CBK284220] | 90.2%
Cc1cc2c(s1)c1cnn(CC(=O)NCC3CC3)c(=O)c1n2C [CBK284222] | 91.2%
C#CCn1ncc2c3sc(C)cc3n(CC)c2c1=O [CBK284225] | 89.5%
CCc1nn2c(C3CCNCC3)ccnc2c1-c1cccs1 [CBK284226] | 80.4%
Cc1cc2c(s1)c1cnn(Cc3ccccn3)c(=O)c1n2C [CBK284227] | 65.4%
Cc1cc2c(o1)c1cnn(CC(=O)N3CCCC3)c(=O)c1n2C(C)C [CBK284232] | 89%
O=C(c1nc2ccccc2s1)C1CCN(C(=O)c2ccco2)CC1 [CBK284234] | 83.6%
O=c1[nH]nc2c3c4c(sc3ncn12)CCCC4 [CBK284235] | 56.8%
Cc1cc2c(o1)c1cnn(CC(=O)N3CCC(C)CC3)c(=O)c1n2C [CBK284236] | 83.9%
CC(C)C(=O)N1CCC(c2[nH]ncc2-c2ccncc2)CC1 [CBK284237] | 79.6%
O=C(C1CCCCC1)N1CCC(n2nc(C3CC3)ccc2=O)CC1 [CBK284240] | 90.7%
CC(C)(C)C(=O)N1CCC(n2nc(C3CC3)ccc2=O)CC1 [CBK284242] | 84.6%
CC(C)C(=O)N1CCC(n2nc(-c3ccco3)ccc2=O)CC1 [CBK284244] | 83.8%
CC(=O)N1CCC[C@H]1Cn1nc(-c2cccs2)ccc1=O [CBK284249] | 78.1%
O=C(C1CC1)N1CCC[C@H]1Cn1nc(-c2ccc(F)cc2)ccc1=O [CBK284252] | 79.8%
COc1cccc(CN2CCN(C(=O)c3cc(C)[nH]c3C)[C@@H](C)C2)c1 [CBK284255] | 99.1%

SMILES | viability at 28.5 h, 10 µM
COC(=O)[C@H]1CCc2ccccc2N1C(C)=O [CBK284256] | 90.2%
COC(=O)[C@H]1CCc2ccccc2N1C(=O)c1ccco1 [CBK284259] | 84.5%
Cc1ncsc1C(=O)N1CCC[C@H](C(=O)c2cccs2)C1 [CBK284260] | 80.2%
COc1cccc(CN2CCN(Cc3ccco3)[C@@H](C)C2)c1 [CBK284265] | 80.3%
COc1cccc(CN2CCN(C(=O)N3CCCCC3)[C@@H](C)C2)c1 [CBK284266] | 95%
CCN(CC)C(=O)N1CCN(Cc2cccc(OC)c2)C[C@@H]1C [CBK284268] | 78.8%
O=C(NCc1ccco1)[C@@H]1C=CCN1C(=O)Nc1ccccc1Cl [CBK284269] | 84.3%
CC(C)[C@H]1CN(Cc2ccco2)CCN1Cc1ccco1 [CBK284271] | 79.3%
CC(C)[C@H]1CN(Cc2ccco2)CCN1C(=O)N1CCCCC1 [CBK284272] | 87.6%
CC(C)[C@H]1CN(Cc2ccco2)CCN1C(=O)N1CCOCC1 [CBK284273] | 82.2%
CC(C)[C@H]1CN(Cc2ccco2)CCN1C(=O)NCc1ccccc1 [CBK284274] | 99.6%
CC(C)[C@H]1CN(Cc2ccco2)CCN1Cc1ccccn1 [CBK284275] | 112%
O=C(NC1CC1)[C@@H]1C=CCN1C(=O)Nc1ccccc1C(F)(F)F [CBK284276] | 98.1%
CC(C)(C)OC(=O)N1CCC[C@H]1C(=O)c1cccnc1 [CBK284280] | 99.3%
Cc1c(C(=O)N2CCC[C@H]2[C@H](O)c2nccs2)oc2ccccc12 [CBK284281] | 100%
CC(C)(C)OC(=O)N1CCC[C@@H]([C@H](O)c2nccs2)C1 [CBK284283] | 81%
CC(C)(C)OC(=O)N1CCC[C@@H](C(=O)c2cccnc2)C1 [CBK284284] | 98.2%
O=C(c1cc2c(s1)CCC2)N1CCC[C@H]1[C@H](O)c1nccs1 [CBK284287] | 92.5%
O=C(c1ccco1)N1CCC[C@@H]1[C@@H](O)c1cccs1 [CBK284291] | 80.7%
O=C(NCc1ccco1)[C@@H]1C=CCN1C(=O)NCc1ccccc1 [CBK284293] | 93%
CC[C@H](Cn1nc(-c2cccs2)ccc1=O)NC(=O)C(C)C [CBK284296] | 93.7%
CC(C)[C@@H](Cn1nc(-c2cccs2)ccc1=O)NC(=O)C1CC1 [CBK284297] | 87.4%
COc1ccc(OC[C@@H](N)C(C)C)cc1 [CBK284299] | 93.9%

SMILES | viability at 28.5 h, 10 µM
CC[C@H](Cn1ncc2ccccc2c1=O)NC(=O)CC(C)C [CBK284305] | 89.1%
COc1ccc(C(=O)[C@@H]2CCCN(C(=O)OC(C)(C)C)C2)cc1 [CBK284308] | 98.7%
COc1ccc([C@H](O)[C@@H]2CCCN(C(=O)OC(C)(C)C)C2)cc1 [CBK284311] | 83.4%
O=c1ccc(-c2cccs2)nn1C[C@H]1CCCN1 [CBK284313] | 88.6%
C=CCNC(=O)[C@@H]1C=CCN1S(=O)(=O)c1ccc(Cl)cc1 [CBK284318] | 90.4%
C[C@@H](Cn1nnc2ccccc21)NC(=O)c1cccs1 [CBK284322] | 82.3%
O=C(NC1CC1)[C@H]1C=CCN1C(=O)c1cccs1 [CBK284324] | 94.7%
O=C(c1ccc(F)cc1)[C@H]1CCCN(C(=O)C2CC2)C1 [CBK284326] | 90.5%
COc1ccc(C(=O)[C@H]2CCCN(C(=O)C3CC3)C2)cc1 [CBK284329] | 91.4%
O=C(c1ccc(F)cc1)[C@H]1CCCN(C(=O)c2cc[nH]n2)C1 [CBK284331] | 87.3%
CC(C)C(=O)N1CCC(n2c(=O)oc3ccc(Cl)cc32)CC1 [CBK284339] | 79.9%
O=C(C1CCCO1)N1CCCCCC1c1cc(-c2cccs2)on1 (centres unmarked) [CBK284340] | 97.6%
O=c1oc2ccc(Cl)cc2n1C1CCN(Cc2ccco2)CC1 [CBK284342] | 102%
O=C(c1ccco1)N1CCC(n2c(=O)oc3ccc(Cl)cc32)CC1 [CBK284343] | 103%
O=C(C1CCCC1)N1CCC(n2c(=O)oc3ccc(Cl)cc32)CC1 [CBK284344] | 96.7%
O=C(c1cccs1)N1CCC(n2c(=O)oc3ccccc32)CC1 [CBK284347] | 88.2%
O=C(C1CCCCC1)N1CCC(n2c(=O)oc3ccccc32)CC1 [CBK284348] | 97.2%
O=C(C1CCCC1)N1CCC(n2c(=O)oc3ccccc32)CC1 [CBK284349] | 83.7%
O=C1Nc2c(cnn2-c2ccc(F)cc2)C2=NCCN12 [CBK284351] | 104%
O=C1NC2(CC3CCC2CC3C(=O)NC2CC2)Oc2ccccc21 (centres unmarked) [CBK284352] | 99.6%
Cc1nc2n(n1)CCN(C(=O)Cc1c(C)[nH]c3ccc(F)cc13)C2 [CBK284355] | 83.1%
O=C(c1ccccc1F)N1CCC(O)(c2cccnc2F)CC1 [CBK284356] | 97.1%
O=C(c1cccc(F)c1)N1CCC(O)(c2cccnc2F)CC1 [CBK284357] | 92.2%

SMILES | viability at 28.5 h, 10 µM
Cc1ccc(C(=O)N2CCC(O)(c3cccnc3F)CC2)o1 [CBK284358] | 94.4%
O=C(c1c(F)cccc1F)N1CCC(O)(c2cccnc2F)CC1 [CBK284359] | 97.7%
O=C(Cc1ccccc1Cl)N1CCC(O)(c2cccnc2F)CC1 [CBK284360] | 101%
CCS(=O)(=O)N1CC2CCCC(O)(c3ccc(F)cc3)C2C1 (centres unmarked) [CBK284363] | 80.5%
Cc1cc(-c2cc(=O)n(Cc3ccccc3F)nc2C2CC2)on1 [CBK284366] | 87.2%
CCC(=O)N1CCC(c2cc(C(F)(F)F)n3nc(C)cc3n2)CC1 [CBK284367] | 96.9%
OC1(c2cccnc2F)CCN(Cc2ccc(Cl)cc2)CC1 [CBK284368] | 102%
OC1(c2cccnc2F)CCN(Cc2ccccc2F)CC1 [CBK284372] | 91%
OC1(c2cccnc2F)CCN(Cc2cccc(F)c2F)CC1 [CBK284375] | 96.2%
Cc1ccccc1CN1CCC(O)(c2cccnc2F)CC1 [CBK284376] | 96%
OC1(c2ccc(F)cc2)CCCC2CN(Cc3cccnc3)CC21 (centres unmarked) [CBK284377] | 86.8%
Cc1cc2ncc3c(n2n1)CC1CCC3N1C(=O)c1ccco1 (centres unmarked) [CBK284379] | 78.1%
c1coc(-c2cc3ncc4c(n3n2)CC2CCC4N2)c1 (centres unmarked) [CBK284381] | 84.7%
C=Cn1cccc1C(=O)N1C2CCC1c1cnc3cc(C)nn3c1C2 (centres unmarked) [CBK284382] | 89.2%
CCCC(=O)N1C2CCC1c1cnc3cc(-c4ccco4)nn3c1C2 (centres unmarked) [CBK284383] | 96.6%
O=C1Nc2cc(Cl)ccc2C2=NCCCN12 [CBK284385] | 81.5%
CCN(CC)C(=O)CN1C(=O)N2CCCN=C2c2ccc(Cl)cc21 [CBK284386] | 91.7%
CC(C)(C)NC(=O)CN1C(=O)N2CCCN=C2c2ccc(Cl)cc21 [CBK284391] | 102%
CN(C)C(=O)CN1C(=O)N2CCCN=C2c2ccc(Cl)cc21 [CBK284392] | 98.2%
CC1CCCCN1C(=O)CN1C(=O)N2CCCN=C2c2ccccc21 (centres unmarked) [CBK284393] | 79.8%
CC(C)OC(=O)CN1C(=O)N2CCCN=C2c2ccccc21 [CBK284394] | 89.4%
O=C(CN1C(=O)N2CCCN=C2c2ccccc21)N1CCCCC1 [CBK284395] | 85.8%
O=C(CN1C(=O)N2CCCN=C2c2ccccc21)NC1CCCC1 [CBK284397] | 82.6%
